US10800753B2, “Tetrahydrothiophene-based GABA aminotransferase inactivators and analogs thereof for treating neurological disorders” (Northwestern University, priority 2015, dated 2020)
One block for each compound: values may come before it.

Experiments:
[1] = system: multiple-hit rat model of infantile spasms; settings: cited from earlier work
CYP1A = test: Inhibition of microsomal cytochromes P450: CYP1A; assay type: in vitro ADME, human; settings: HLM, phenacetin substrate, 10 μM, 10 min at 37° C.
Protocol: (§1) Inhibition of Microsomal Cytochromes P450. The experiments were performed by Eurofins Panlabs (Redmond, Wash. 98052, USA). CYP1A inhibition (HLM, phenacetin substrate), CYP2B6 inhibition (HLM, bupropion substrate), CYP2C8 inhibition (HLM, paclitaxel substrate), CYP2C9 inhibition (HLM, diclofenac substrate), CYP2C19 inhibition (HLM, omeprazole substrate), CYP2D6 inhibition (HLM, dextromethorphan substrate), and CYP3A inhibition (HLM, midazolam and testosterone substrates) were tested. The test concentration was 10 μM. The incubation time was 10 min at 37° C. The detection method was by HPLC-MS/MS. The experiments were duplicated, and the % inhibition of the control values was averaged (FIG. 10).

[2] = Metabolic stability in human liver microsomes; assay type: in vitro ADME; settings: over 60 minutes, 0.1 μM, 37° C., LC-MS/MS
Protocol: Measurement of the metabolic stability in HLM was accomplished by incubating 17 with the microsomes and monitoring its disappearance with time using LC-MS/MS. Imipramine, propranolol, terfenadine, and verapamil were run in similar condition as controls. […] Metabolic Stability in Human Liver Microsomes. The experiments were performed by Eurofins Panlabs (Redmond, Wash. 98052, USA). The test concentration of 17 was 0.1 μM. […] The detection method was by LC-MS/MS. Imipramine, propranolol, terfenadine, and verapamil were run in similar condition as controls.

CYP3A = test: Inhibition of microsomal cytochromes P450: CYP3A; assay type: in vitro ADME, human; settings: HLM, midazolam and testosterone substrates, 10 μM, 10 min at 37° C.
Protocol: as §1

CYP2C19 = CYP2C19 (Homo sapiens (Human), UniProt P33261); test: Inhibition of microsomal cytochromes P450: CYP2C19; assay type: in vitro ADME; settings: HLM, omeprazole substrate, 10 μM, 10 min at 37° C.
Chain of CYP2C19 (P33261 whole entry): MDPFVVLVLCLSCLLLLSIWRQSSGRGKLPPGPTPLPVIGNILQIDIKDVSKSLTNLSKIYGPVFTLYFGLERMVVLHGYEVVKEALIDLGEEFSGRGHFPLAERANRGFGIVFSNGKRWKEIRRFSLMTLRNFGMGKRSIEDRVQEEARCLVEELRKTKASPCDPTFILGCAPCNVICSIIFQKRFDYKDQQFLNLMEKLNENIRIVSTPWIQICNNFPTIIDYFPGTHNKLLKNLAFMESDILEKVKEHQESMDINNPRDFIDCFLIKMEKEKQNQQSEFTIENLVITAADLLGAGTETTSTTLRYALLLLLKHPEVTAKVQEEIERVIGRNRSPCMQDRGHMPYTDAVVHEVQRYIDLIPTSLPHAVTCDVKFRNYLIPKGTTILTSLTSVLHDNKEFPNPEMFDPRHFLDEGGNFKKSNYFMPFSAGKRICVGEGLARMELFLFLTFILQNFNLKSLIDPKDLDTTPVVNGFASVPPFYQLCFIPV
Protocol: as §1

CYP2D6 = CYP2D6 (Homo sapiens (Human), UniProt P10635); test: Inhibition of microsomal cytochromes P450: CYP2D6; assay type: in vitro ADME; settings: HLM, dextromethorphan substrate, 10 μM, 10 min at 37° C.
Chain of CYP2D6 (P10635 whole entry): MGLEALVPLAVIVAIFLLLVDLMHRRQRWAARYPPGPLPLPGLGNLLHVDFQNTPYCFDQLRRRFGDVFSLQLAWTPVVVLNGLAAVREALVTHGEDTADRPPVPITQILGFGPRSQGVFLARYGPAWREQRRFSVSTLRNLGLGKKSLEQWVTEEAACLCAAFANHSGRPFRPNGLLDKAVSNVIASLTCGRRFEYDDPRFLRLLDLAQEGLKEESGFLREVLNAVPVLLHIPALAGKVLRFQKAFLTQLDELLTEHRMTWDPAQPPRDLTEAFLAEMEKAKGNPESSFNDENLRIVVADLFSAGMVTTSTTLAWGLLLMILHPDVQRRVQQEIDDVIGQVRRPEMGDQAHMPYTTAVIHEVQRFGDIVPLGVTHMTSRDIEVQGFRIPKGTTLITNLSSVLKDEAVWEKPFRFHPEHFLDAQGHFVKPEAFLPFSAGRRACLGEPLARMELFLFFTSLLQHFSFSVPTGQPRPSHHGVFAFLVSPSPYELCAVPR
Protocol: as §1

hERG channel = hERG channel (Homo sapiens (Human), UniProt Q12809); test: Inhibition of the hERG channel, automated whole-cell patch clamp; assay type: cell-based; settings: hERG CHO-K1 cell line; 0.1 μM, 1 μM, 10 μM; 5 min at room temperature
Chain of hERG channel (Q12809 whole entry): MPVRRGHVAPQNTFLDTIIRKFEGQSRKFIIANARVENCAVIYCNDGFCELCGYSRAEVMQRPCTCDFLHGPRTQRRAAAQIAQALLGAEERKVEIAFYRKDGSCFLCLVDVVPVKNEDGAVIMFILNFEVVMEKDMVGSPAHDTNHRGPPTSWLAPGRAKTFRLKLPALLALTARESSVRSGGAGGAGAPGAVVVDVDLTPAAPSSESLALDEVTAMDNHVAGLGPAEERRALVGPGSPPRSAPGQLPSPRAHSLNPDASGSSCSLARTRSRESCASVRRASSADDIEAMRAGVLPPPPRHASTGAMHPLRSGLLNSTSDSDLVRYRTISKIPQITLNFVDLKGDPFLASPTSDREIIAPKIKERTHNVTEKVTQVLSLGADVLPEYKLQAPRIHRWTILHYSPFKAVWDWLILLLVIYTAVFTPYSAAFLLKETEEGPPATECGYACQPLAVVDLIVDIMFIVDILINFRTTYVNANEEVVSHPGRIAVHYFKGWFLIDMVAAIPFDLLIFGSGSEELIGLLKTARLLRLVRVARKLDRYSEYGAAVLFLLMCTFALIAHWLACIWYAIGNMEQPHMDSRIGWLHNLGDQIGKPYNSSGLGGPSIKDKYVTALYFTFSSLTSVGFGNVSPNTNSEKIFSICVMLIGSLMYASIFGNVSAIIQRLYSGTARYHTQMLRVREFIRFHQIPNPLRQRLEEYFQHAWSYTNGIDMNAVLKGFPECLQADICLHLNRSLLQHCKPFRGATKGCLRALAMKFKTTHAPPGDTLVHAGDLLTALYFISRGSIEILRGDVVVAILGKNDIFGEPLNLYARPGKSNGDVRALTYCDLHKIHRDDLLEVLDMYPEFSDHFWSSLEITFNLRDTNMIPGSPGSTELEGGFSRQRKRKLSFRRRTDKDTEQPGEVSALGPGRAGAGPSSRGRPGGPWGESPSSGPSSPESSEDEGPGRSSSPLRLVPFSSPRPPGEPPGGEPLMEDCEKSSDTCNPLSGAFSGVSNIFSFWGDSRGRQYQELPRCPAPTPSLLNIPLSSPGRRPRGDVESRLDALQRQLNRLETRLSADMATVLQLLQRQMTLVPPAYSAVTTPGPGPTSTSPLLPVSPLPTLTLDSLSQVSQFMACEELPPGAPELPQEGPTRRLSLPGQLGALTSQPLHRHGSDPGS
Protocol: Inhibition of the hERG Channel. The experiments were performed by Eurofins Panlabs (Redmond, Wash. 98052, USA). hERG CHO-K1 cell line was used. The test concentrations were 0.1 μM, 1 μM, and 10 μM. The incubation time was 5 min at room temperature, cumulatively. The detection method used an automated whole-cell patch clamp. The experiments were duplicated, and the % inhibition of the tail current was averaged (FIG. 9).

CYP2C9 = CYP2C9 (Homo sapiens (Human), UniProt P11712); test: Inhibition of microsomal cytochromes P450: CYP2C9; assay type: in vitro ADME; settings: HLM, diclofenac substrate, 10 μM, 10 min at 37° C.
Chain of CYP2C9 (P11712 whole entry): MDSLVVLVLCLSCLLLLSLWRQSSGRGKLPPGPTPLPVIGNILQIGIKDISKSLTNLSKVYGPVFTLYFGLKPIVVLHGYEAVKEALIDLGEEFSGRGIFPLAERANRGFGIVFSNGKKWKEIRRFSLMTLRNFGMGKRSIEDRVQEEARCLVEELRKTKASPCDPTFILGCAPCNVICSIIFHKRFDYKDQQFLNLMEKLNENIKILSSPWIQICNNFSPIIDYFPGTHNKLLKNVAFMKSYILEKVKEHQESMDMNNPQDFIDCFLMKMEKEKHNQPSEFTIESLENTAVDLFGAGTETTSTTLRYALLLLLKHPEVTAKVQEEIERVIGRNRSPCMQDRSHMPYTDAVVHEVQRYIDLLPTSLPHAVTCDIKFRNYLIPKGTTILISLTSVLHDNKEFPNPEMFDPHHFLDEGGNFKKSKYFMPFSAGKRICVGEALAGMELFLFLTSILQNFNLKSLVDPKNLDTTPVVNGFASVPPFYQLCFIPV
Protocol: as §1

CYP2C8 = CYP2C8 (Homo sapiens (Human), UniProt P10632); test: Inhibition of microsomal cytochromes P450: CYP2C8; assay type: in vitro ADME; settings: HLM, paclitaxel substrate, 10 μM, 10 min at 37° C.
Chain of CYP2C8 (P10632 whole entry): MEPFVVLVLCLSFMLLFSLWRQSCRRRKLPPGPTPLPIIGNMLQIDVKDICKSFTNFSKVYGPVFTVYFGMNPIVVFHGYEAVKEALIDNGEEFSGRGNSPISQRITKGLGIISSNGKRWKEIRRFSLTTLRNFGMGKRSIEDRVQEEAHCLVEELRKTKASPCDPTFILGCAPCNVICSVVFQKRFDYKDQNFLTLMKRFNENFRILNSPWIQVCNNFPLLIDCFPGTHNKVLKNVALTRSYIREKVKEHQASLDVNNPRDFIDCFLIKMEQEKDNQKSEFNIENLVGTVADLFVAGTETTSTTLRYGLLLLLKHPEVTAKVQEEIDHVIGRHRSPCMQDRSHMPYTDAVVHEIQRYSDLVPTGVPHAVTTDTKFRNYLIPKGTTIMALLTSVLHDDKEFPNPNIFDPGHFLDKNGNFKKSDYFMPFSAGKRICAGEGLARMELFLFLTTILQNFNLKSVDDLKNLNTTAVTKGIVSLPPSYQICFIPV
Protocol: as §1

CYP2B6 = CYP2B6 (Homo sapiens (Human), UniProt P20813); test: Inhibition of microsomal cytochromes P450: CYP2B6; assay type: in vitro ADME; settings: HLM, bupropion substrate, 10 μM, 10 min at 37° C.
Chain of CYP2B6 (P20813 whole entry): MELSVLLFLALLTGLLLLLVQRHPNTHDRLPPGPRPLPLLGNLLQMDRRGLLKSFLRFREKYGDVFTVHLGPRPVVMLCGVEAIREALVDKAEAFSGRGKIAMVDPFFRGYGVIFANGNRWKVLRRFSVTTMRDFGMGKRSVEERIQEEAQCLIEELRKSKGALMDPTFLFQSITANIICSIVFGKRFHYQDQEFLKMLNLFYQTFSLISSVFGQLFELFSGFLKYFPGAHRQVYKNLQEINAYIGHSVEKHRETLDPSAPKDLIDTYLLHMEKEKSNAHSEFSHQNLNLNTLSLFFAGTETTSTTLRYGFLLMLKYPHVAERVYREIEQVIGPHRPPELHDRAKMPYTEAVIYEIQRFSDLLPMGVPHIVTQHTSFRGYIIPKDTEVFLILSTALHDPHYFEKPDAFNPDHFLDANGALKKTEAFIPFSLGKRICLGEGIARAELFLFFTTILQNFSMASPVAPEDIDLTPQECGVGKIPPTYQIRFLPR
Protocol: as §1

GABA-AT = settings: cited from earlier work
[3] = system: aspartate aminotransferase; settings: off-target enzyme, prior art; cited from earlier work
[4] = molecular target: GABA aminotransferase (GABA-AT) (Sus scrofa (Pig), UniProt P80147); test: Inhibition of GABA-AT, coupled assay with SSDH (IC50 to Ki by Cheng-Prusoff); assay type: biochemical; settings: competitive inhibitor of GABA-AT
Chain of GABA aminotransferase (GABA-AT) (P80147 29-500): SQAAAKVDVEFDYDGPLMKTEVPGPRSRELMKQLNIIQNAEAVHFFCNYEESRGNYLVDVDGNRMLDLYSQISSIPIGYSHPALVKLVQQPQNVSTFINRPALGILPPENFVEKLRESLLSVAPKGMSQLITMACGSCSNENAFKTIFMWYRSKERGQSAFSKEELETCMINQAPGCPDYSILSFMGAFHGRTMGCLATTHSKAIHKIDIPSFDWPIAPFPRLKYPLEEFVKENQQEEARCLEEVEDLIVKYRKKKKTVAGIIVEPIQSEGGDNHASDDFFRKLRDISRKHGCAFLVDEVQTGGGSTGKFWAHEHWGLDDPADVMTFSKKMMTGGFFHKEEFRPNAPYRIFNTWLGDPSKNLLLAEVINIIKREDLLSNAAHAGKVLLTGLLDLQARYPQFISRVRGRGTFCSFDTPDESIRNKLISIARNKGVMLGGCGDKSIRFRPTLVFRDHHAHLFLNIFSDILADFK
Protocol: GABA-AT was isolated and purified from pig brain by a published procedure.
Inhibition constants were determined by monitoring GABA-AT activity in the presence of 0-50 mM concentrations of synthesized analogues using a coupled assay with the enzyme succinic semialdehyde dehydrogenase (SSDH). The assay solution consisted of 10 mM GABA, 5 mM α ketoglutarate, 1 mM NADP^+, 5 mM β-mercaptoethanol, and excess SSDH in 50 mM potassium pyrophosphate buffer, pH 8.5. Enzyme activity was determined by observing the change in absorbance at 340 nm at 25° C. IC50 values were obtained using non-linear regression in GraphPad Prism5 software. […] (Yung-Chi, C.; Prusoff, W. H. Biochem. Pharmacol. 1973, 22, 3099-3108.)

Compound: C=CC(N)CCC(=O)O (stereo not shown) [vigabatrin]
- time spasms suppression stayed effective [1]: 1 days

- CYP1A inhibition (CYP1A): did not inhibit or induce
- metabolized in HLM [2]: less than 20%
- CYP3A inhibition (CYP3A): did not inhibit or induce
- CYP2C19 inhibition (CYP2C19): did not inhibit or induce
- CYP2D6 inhibition (CYP2D6): did not inhibit or induce
- CYP2C9 inhibition (CYP2C9): did not inhibit or induce
- CYP2C8 inhibition (CYP2C8): did not inhibit or induce
- CYP2B6 inhibition (CYP2B6): did not inhibit or induce
Compound: Cl.N[C@@H]1CS[C@H](C(=O)O)C1 [Compound 17, (2S,4S)-4-Aminotetrahydrothiophene-2-carboxylic acid hydrochloride]
- inhibition of the hERG channel (tail current) (hERG channel): did not inhibit

Compound: N[C@H]1C=C(C(=O)O)SC1 [(S)-4-Amino-4,5-dihydro-2-thiophenecarboxylic acid]
- inactivation of GABA-AT (in words, prior art) (GABA-AT): known inactivator of GABA-AT
- inactivation or inhibition of aspartate aminotransferase [3]: inactivator of aspartate aminotransferase

- Ki [4]: 430 µM
Compound: (2S,4S)-4-aminotetrahydrofuran-2-carboxylic acid (40) and (2R,4R)-4-aminotetrahydrofuran-2-carboxylic acid (51) [mixture of enantiomers 40 and 51]
